For 37 compounds, melting point results are on record in patent publication US7495018B2, “Substituted 1,3-thiazole compounds, their production and use” (Takeda Pharmaceutical Company Limited, priority 2000, dated 2009).

`CCCc1cccc(-c2nc(CC)sc2-c2ccnc(NC(=O)CC)c2)c1` [Example 84-8, N-[4-[2-ethyl-4-(3-propylphenyl)-1,3-thiazol-5-yl]-2-pyridyl]propionamide] had a melting point of 124 to 125 °C.

Take `CCNC(=O)Nc1cc(-c2sc(CC)nc2-c2cccc(C)c2)ccn1` [Example 108, N-ethyl-N′-[4-[2-ethyl-4-(3-methylphenyl)-1,3-thiazol-5-yl]-2-pyridyl]urea]: the melting point was 177 to 180 °C.

`Cc1cc(-c2sc(NC(=O)c3cccnc3)nc2-c2ccc(F)cc2)ccn1` [Example Compound 42-7, N-[4-(4-fluorophenyl)-5-(2-methyl-4-pyridyl)-1,3-thiazol-2-yl]nicotinamide] yielded a melting point of 261 to 262 °C.

Compound `CCC(=O)Nc1cc(-c2sc(C(C)=O)nc2-c2cccc(Cl)c2)ccn1` [Example 107, N-[4-[2-acetyl-4-(3-chlorophenyl)-1,3-thiazol-5-yl]-2-pyridyl]propionamide] showed a melting point of 115 to 117 °C.

`CSCCc1nc(-c2cccc(C)c2)c(-c2ccnc(N)c2)s1` [Example 99-1, 4-[4-(3-methylphenyl)-2-[2-(methylthio)ethyl]-1,3-thiazol-5-yl]-2-pyridylamine]: the melting point was 98 to 99 °C.

The compound `CCc1nc(-c2cccc(Cl)c2)c(-c2ccnc(F)c2)s1` [Example Compound 12, 2-ethyl-4-(3-chlorophenyl)-5-(2-fluoro-4-pyridyl)-1,3-thiazole] had a melting point of 102 to 103 °C.

`CCC(=O)Nc1cc(-c2sc(-c3ccc(S(C)(=O)=O)cc3)nc2-c2cccc(Cl)c2)ccn1` [Example Compound 58-7, N-[4-[4-(3-chlorophenyl)-2-(4-methylsulfonylphenyl)-1,3-thiazol-5-yl]-2-pyridyl]propionamide] showed a melting point of 224 to 225 °C.

As for `Cc1cccc(-c2nc(-c3ccc(S(C)(=O)=O)cc3)sc2-c2ccnc(N(C)C3CCCCC3)c2)c1` [Example Compound 37-2, N-cyclohexyl-N-methyl-4-[4-(3-methylphenyl)-2-(4-methylsulfonylphenyl)-1,3-thiazol-5-yl]-2-pyridylamine], the melting point lay within 173 to 174 °C.

The compound `Cc1cc(C)cc(-c2nc(N)sc2-c2cc(C)nc(C)c2)c1` [Example Compound 7-7, [4-(3,5-dimethylphenyl)-5-(2,6-dimethyl-4-pyridyl)-1,3-thiazol-2-yl]amine] registered a melting point of 256 to 258 °C.

The compound `Cc1nc(-c2cccc(Cl)c2)c(-c2ccnc(N)c2)s1` [Example Compound 27-2, 4-[4-(3-chlorophenyl)-2-methyl-1,3-thiazol-5-yl]-2-pyridylamine] came in with a melting point of 142 to 143 °C.

On to `Cc1cccc(-c2nc(NC(=O)NOc3ccccc3)sc2-c2ccnc(C)c2)c1` [Example Compound 64, N-[4-(3-methylphenyl)-5-(2-methyl-4-pyridyl)-1,3-thiazol-2-yl]-N′-phenyloxyurea], for which the melting point is 154 to 155 °C.

As for `CCC(=O)Nc1cc(-c2sc(-c3ccc(SC)cc3)nc2-c2cccc(Cl)c2)ccn1` [Example Compound 30-11, N-[4-[4-(3-chlorophenyl)-2-[4-(methylthio)phenyl]-1,3-thiazol-5-yl]-2-pyridyl]propionamide], the melting point fell in the range of 187 to 188 °C.

Compound `CCc1nc(-c2cccc(C(C)C)c2)c(-c2ccnc(NC(C)=O)c2)s1` [Example 82-8, N-[4-[2-ethyl-4-[3-(1-methylethyl)phenyl]-1,3thiazol-5-yl]-2-pyridyl]acetamide] returned a melting point of 116 to 117 °C.

Compound `CSc1ccc(-c2nc(-c3ccc(F)cc3)c(-c3ccnc(C)c3)s2)cc1` [Example Compound 16-5, 4-(4-fluorophenyl)-5-(2-methyl-4-pyridyl)-2-[4-(methylthio)phenyl]-1,3-thiazole] came in with a melting point of 99 to 100 °C.

In turn, `CCc1nc(-c2cccc(C)c2)c(-c2ccnc(NC(=O)CC3CCCC3)c2)s1` [Example 89, N-[4-[2-ethyl-4-(3-methylphenyl)-1,3-thiazol-5-yl]-2-pyridyl]cyclopentylacetamide] came in with a melting point of 85 to 86 °C.

In the case of `CCC(=O)Nc1cc(-c2sc(CC)nc2-c2cccc(C(C)C)c2)ccn1` [Example 84-7, N-[4-[2-ethyl-4-[3-(1-methylethyl)phenyl]-1,3-thiazol-5-yl]-2-pyridyl]propionamide], the melting point was 93 to 94 °C.

The compound `Cc1cccc(-c2nc(C(=O)O)sc2-c2ccnc(N)c2)c1` [Example Compound 25-1, 5-(2-amino-4-pyridyl)-4-(3-methylphenyl)-1,3-thiazole-2-carboxylic acid] showed a melting point of 156 to 157 °C.

Compound `CNc1nc(-c2cccc(C)c2)c(-c2ccnc(F)c2)s1` [Example Compound 8, N-methyl-[5-(2-fluoro-4-pyridyl)-4-(3-methylphenyl)-1,3-thiazol-2-yl]amine] showed a melting point of 186 to 187 °C.

Consider `Cc1cccc(-c2nc(-c3ccc(S(C)(=O)=O)cc3)sc2-c2ccnc(NC3CCCCC3)c2)c1` [Example Compound 36-5, N-cyclohexyl-4-[4-(3-methylphenyl)-2-(4-methylsulfonylphenyl)-1,3-thiazol-5-yl]-2-pyridylamine], for which the melting point was in the range of 197 to 199 °C.

Compound `Cc1cccc(-c2nc(NC(=O)c3ccc(C)nc3)sc2-c2ccnc(NC3CCCC3)c2)c1` [Example Compound 46-2, N-[5-(2-cyclopentylamino-4-pyridyl)-4-(3-methylphenyl)-1,3-thiazol-2-yl]-6-methylnicotinamide] displayed a melting point of 213 to 214 °C.

The compound `COc1ccc(C(=O)Nc2nc(-c3cc(C)cc(C)c3)c(-c3ccnc(C)c3)s2)cn1` [Example Compound 48-3, N-[4-(3,5-dimethylphenyl)-5-(2-methyl-4-pyridyl)-1,3-thiazol-2-yl]-6-methoxynicotinamide] displayed a melting point of 242 to 244 °C.

In turn, `CCc1cccc(-c2nc(CC)sc2-c2ccnc(NC(C)=O)c2)c1` [Example 82-7, N-[4-[2-ethyl-4-(3-ethylphenyl)-1,3-thiazol-5-yl]-2-pyridyl]acetamide] showed a melting point of 112 to 113 °C.

For the compound `CCc1nc(-c2cccc(Cl)c2)c(-c2ccnc(N)c2)s1` [Example Compound 20-1, 4-[2-ethyl-4-(3-chlorophenyl)-1,3-thiazol-5-yl]-2-pyridylamine], the melting point lay in the range of 132 to 133 °C.

Take `CC(=O)Nc1cc(-c2sc(-c3ccc(S(C)(=O)=O)cc3)nc2-c2cccc(Cl)c2)ccn1` [Example Compound 58-6, N-[4-[4-(3-chlorophenyl)-2-(4-methylsulfonylphenyl)-1,3-thiazol-5-yl]-2-pyridyl]acetamide]: the melting point lay within 216 to 217 °C.

For `Cc1cccc(-c2ncsc2-c2ccnc(N)c2)c1` [Example Compound 27-1, 4-[4-(3-methylphenyl)-1,3-thiazol-5-yl]-2-pyridylamine], the melting point was in the range of 91 to 92 °C.

`Cc1cccc(-c2nc(NC(=O)OCCCl)sc2-c2ccnc(C)c2)c1` [Example Compound 62, 2-chloroethyl[4-(3-methylphenyl)-5-(2-methyl-4-pyridyl)-1,3-thiazol-2-yl]carbamate] showed a melting point of 156 to 158 °C.

The compound `CSc1ccc(-c2nc(-c3cccc(Cl)c3)c(-c3ccnc(NC(C)=O)c3)s2)cc1` [Example Compound 30-5, N-[4-[4-(3-chlorophenyl)-2-[4-(methylthio)phenyl]-1,3-thiazol-5-yl]-2-pyridyl]acetamide] yielded a melting point of 207 to 208 °C.

On to `CCC(=O)Nc1cc(-c2sc(-c3ccc(S(C)(=O)=O)cc3)nc2-c2cccc(C)c2)ccn1` [Example 98-2, N-[4-[4-(3-methylphenyl)-2-(4-methylsulfonylphenyl)-1,3-thiazol-5-yl]-2-pyridyl]propionamide], for which the melting point is 238 to 239 °C.

In turn, `CCc1cccc(-c2nc(CC)sc2-c2ccnc(N)c2)c1` [Example Compound 20-8, 4-[2-ethyl-4-(3-ethylphenyl)-1,3-thiazol-5-yl]2-pyridylamine] gave a melting point of 128 to 129 °C.

In the case of `Cc1cccc(-c2nc(-c3ccc(S(C)(=O)=O)cc3)sc2-c2cc(C)nc(C)c2)c1` [Example Compound 58-2, 5-(2,6-dimethyl-4-pyridyl)-4-(3-methylphenyl)-2-(4-methylsulfonylphenyl)-1,3-thiazole], the melting point was 182 to 184 °C.

`CCc1nc(-c2cccc(Cl)c2)c(-c2ccnc(NC3CCCCC3)c2)s1` [Example Compound 36-10, 4-[4-(3-chlorophenyl)-2-ethyl-1,3-thiazol-5-yl]-N-cyclohexyl-2-pyridylamine] had a melting point of 106 to 107 °C.

The compound `CNc1nc(-c2cccc(C)c2)c(-c2ccnc(NC3CCCCC3)c2)s1` [Example Compound 36-2, N-methyl-[5-(2-cyclohexylamino-4-pyridyl)-4-(3-methylphenyl)-1,3-thiazol-2-yl]amine] showed a melting point of 211 to 212 °C.

In turn, `CCCCC(=O)Nc1cc(-c2sc(CC)nc2-c2cccc(C)c2)ccn1` [Example 87-1, N-[4-[2-ethyl-4-(3-methylphenyl)-1,3-thiazol-5-yl]-2-pyridyl]valeramide] had a melting point of 81 to 82 °C.

For `CC(=O)Nc1cc(-c2sc(C)nc2-c2cccc(C)c2)ccn1` [Example 82-10, N-[4-[2-methyl-4-(3-methylphenyl)-1,3-thiazol-5-yl]-2-pyridyl]acetamide], the melting point fell in the range of 162 to 163 °C.

As to `Cc1cc(C)cc(-c2nc(NC(=O)c3ccc(C)nc3)sc2-c2ccnc(C)c2)c1` [Example Compound 46-3, N-[4-(3,5-dimethylphenyl)-5-(2-methyl-4-pyridyl)-1,3-thiazol-2-yl]-6-methylnicotinamide], the melting point lay in the range of 252 to 253 °C.

`CC(=O)Nc1cc(-c2sc(C(C)O)nc2-c2cccc(Cl)c2)ccn1` (stereo not shown) [Example 111-2, N-[4-[4-(3-chlorophenyl)-2-(1-hydroxyethyl)-1,3-thiazol-5-yl]-2-pyridyl]acetamide] had a melting point of 142 to 145 °C.

Regarding `Cc1cccc(-c2nc(C(C)(F)F)sc2-c2ccnc(N)c2)c1` [Example 113-2, 4-[2-(1,1-difluoroethyl)-4-(3-methylphenyl)-1,3-thiazol-5-yl]-2-pyridylamine], the melting point fell in the range of 140 to 141 °C.
